Laboratory results: patent US20110207817A1, “ANTI-INFLAMMATORY COMPOUNDS AND COMPOSITIONS THEREOF” (priority 2008, published 2011)

How the values were obtained:
Format in all cases: cell-based
[1] = system: human gingival fibroblast HGF cells; assay: LPS-induced PGE2 release from HGF cells (Example 4); details: 100 μg/ml, without LPS
Method: (§1) In the presence and absence of sodium propyl paraben, mouse macrophage cells (RAW 264.7) and human gingival cells (HGF) were stimulated with LPS and the levels of inflammatory mediators Prostaglandin E2 (PGE2) and interleukin 8 (IL-8) in the cell supernatants were measured. While LPS administration increased the secretion of inflammatory mediators, sodium propyl paraben decreased LPS induced secretion of these mediators in a dose dependent manner. Sodium propyl paraben was identified as a novel anti-inflammatory agent, inhibiting the secretion of inflammatory mediators from both leukocytes and gingival fibroblasts. Mouse macrophage Raw 264.7 cells and human gingival fibroblast HGF cells were purchased from ATCC (Manassas, Va.) and ScienCell LLC (Carlsbad, Calif.), respectively. All of the culturing reagents were purchased from Mediatech (Manassas, Va.) unless otherwise stated. Both cell lines were cultured in a humidified incubator at 37° C. and in the presence of 5% CO2 and maintained in Dulbecco's Modified Eagle Medium (DMEM, 4.5 g/l glucose) supplemented with 10% Fetal Bovine Serum (FBS) and 1% penicillin-streptomycin. […] The level of PGE2 or IL-8 was analyzed using commercially available enzyme-linked immunosorbent assay (ELISA) kits (R&D Systems, Minneapolis, Minn.). […]

[2] = system: Mouse macrophage Raw 264.7 cells; assay: LPS-induced PGE2 release from Raw 264.7 cells (Example 4)
Method: as §1

[3] = system: human gingival fibroblast HGF cells; assay: LPS-mediated IL-8 production (Example 4)
Method: as §1

[4] = system: Human Gingival Fibroblast (HGF) cells; assay: PGE2 release from LPS-irritated Human Gingival Fibroblast cells, neat solution (Example 1); details: for PGE2 Release (with LPS): 2 μg/mL P. gingivalis LPS, negative control without LPS = 100%
Method: For Examples 1 through 3, three sets of cell culture experiments were conducted in order to establish the anti-inflammatory efficacy of sodium propyl paraben. In all cases, in-vitro testing was conducted using Human Gingival Fibroblast cells suspended in low serum media. To irritate the cells, 2 μg/mL lipopolysaccharide (LPS) derived from P. gingivalis was added to the media. Sodium propyl paraben was added either directly to the media or incorporated into an adhesive matrix which was then suspended into the media by means of a permeable plastic insert. Cellular response was quantified by the presence of Prostaglandin E2 (PGE2), a cytokine associated with cellular irritation and inflammation, following an incubation period. Data is reported below after normalizing the level of PGE2 release of a negative control to “100%”. In-vitro testing was conducted using Human Gingival Fibroblast (HGF) cells that had been purchased from ScienCell (Carlsbad, Calif.). Prior to use, the cells had been grown in a 37° C. incubator with 5% CO2 and 95% humidity. Cells were maintained in high glucose Dulbecco's Modified Eagle's Medium (Mediatech, Manassas, Va.) with a 10% addition of heat inactivated Fetal Bovine Serum (Mediatech) and a 1% addition of Penicillin-Streptomycin 100× solution (Mediatech). Cells that had been previously frozen for long-term storage were allowed to recover/expand for at least one passage before being utilized for experimentation. To plate the cells, the maintenance medium was aspirated and the cells were washed with Hank's Balanced Salt Solution (Mediatech). Subsequently, the HBSS was aspirated and a trypsin-EDTA solution (Mediatech) was added to ensure that the cells released from the tissue culture plastic. Maintenance medium was reapplied and fractions of the solution containing the cells were transferred to a multi-well plate. After transfer, incubation was conducted to expand the cell population to 80% confluency. When the desired level of confluency was achieved, the maintenance medium was aspirated and one of several test solutions was added. For a negative control, a low serum medium was prepared that contained 0.5% of Fetal Bovine Serum (Mediatech) and 581.08 mg/L of L-gluatmine powder (Sigma-Aldrich, Milwaukee, Wis.) in DMEM High Glucose Media without Phenol Red and L-Glutamine (VWR Scientific, West Chester, Pa.). Low serum media were also prepared with the addition of 1, 10, or, 100 μg/mL of sodium propyl paraben (Sigma-Aldrich). […] An ELISA kit from R&D Systems (Minneapolis, Minn.) was used to quantify the release of PGE2 from the cells. […] The quantity of PGE2 reported by the assay was normalized by the percentage of viable cells or total protein. […]

SMILES | Induction of PGE2 by compound alone [1] | Induction of PGE2 by compound alone ([2]; 100 μg/ml, without LPS) | Induction of IL-8 by compound alone ([3]; 100 μg/ml, without LPS, either cell model) | PGE2 Release (with LPS) ([4]; 1 μg/mL in low serum media) [%] | PGE2 Release (with LPS) ([4]; 10 μg/mL in low serum media) [%] | PGE2 Release (with LPS) ([4]; 100 μg/mL in low serum media) [%] | PGE2 Release (without LPS) ([4]; 100 μg/mL in low serum media, no LPS, negative control = 100%) [%] | LPS-elevated release of PGE2 ([2]; 1, 10 and 100 μg/ml, PG-LPS 2 μg/ml, FIG. 1A) | LPS mediated IL-8 production ([3]; 1, 10 or 100 μg/ml, PG-LPS 2 μg/ml, FIG. 1C)
CCCOC(=O)c1ccc(O)cc1 [propyl paraben, propyl 4-hydroxybenzoate] | not observed | not observed | not observed | – | – | – | – | – | –
CCCOC(=O)c1ccc(O)cc1.[Na] [Sodium Propyl Paraben, propyl 4-hydroxybenzoate, sodium salt] | – | – | – | 124 ± 52 | 103 ± 23 | 84 ± 62 | 62 ± 37 | reduced to basal level | reduced LPS mediated IL-8 production in a dose dependent manner
